Here are results for twelve molecules from patent US5484780A, “Angiotensin II antagonists” (Eli Lilly and Company, priority 1994, dated 1996).

As a reminder, the Ki is a measure of affinity in units of concentration, obtained from inhibition or displacement. For orientation: Kb means the equilibrium dissociation constant of an antagonist, usually derived from a functional assay.

For experiment [1], the target named is angiotensin II receptor (adrenal membranes). Put plainly: Adrenal Glomerulosa Test System: binding of I^125-angiotensin II to adrenal membranes. The settings on record: displacement of 0.1 nM I^125-angiotensin II, rat adrenal membranes, 90 minutes, room temperature; KI by Cheng Prusoff equation; read-out: Adrenal Glomulosa (KI). As for the experimental part: (§1) As previously discussed, the compounds of Formula I are potent effective antagonists of angiotensin II. The ability of representative compounds of Formula I to block angiotensin II receptor binding was determined using the adrenal glomerulosa assay. The ability to antagonize angiotensin-induced vasoconstriction was evaluated in the rabbit aorta test system.
Binding of I^125 -angiotensin II to adrenal membranes was routinely carried out in 96-well filtration plates. Adrenal membranes were prepared from the capsular portion (glomerulosal layer attached) of rat adrenal glands by differential centrifugation. Briefly, capsules were homogenized in a solution containing sucrose, 250 mM; MgCl2, 1 mM; and tris, 5 mM at pH 7.5 and 4° C. using a polytron at setting 5 for 20 seconds. The homogenate was stirred, gently, for 15 minutes at 4° C. and then centrifuged 10 minutes, at 1000×g, 4° C. The supernatant was centrifuged 30 minutes, at 30,000×g, 4° C., and the resulting pellet resuspended in 50 mM tris. Membrane preparations were stored in aliquots at -70° C. until used. Binding of I^125 -angiotensin II to adrenal membranes was performed at room temperature for 90 minutes in 96-well plates containing a hydrophilic polyvinylidene fluoride membrane (0.45 μm, Millipore-GV multiscreen). Each 250 μincubate contained the following (final concentration): tris, 50 mM; NaCl, 120 mM; MgCl2, 5 mM; dithiothrietol 1 mM; bovine serum albumin, 0.05%; I^125 -angiotensin II, 0.1 nM; and adrenal membrane protein, 8-15 μg. Antagonists were added in concentrations from 10 nM to 100 μM. Non-specific binding was measured in the presence of 0.1 μM Sar1, Ile8 angiotensin II.
Binding was terminated by vacuum filtration. Receptor-ligand complex trapped on filters was washed 3 times with 300 μl ice-cold wash solution (tris, 50 mM; NaCl, 120 mM; MgCl2, 5 mM; dithiothrietol, 1 mM). Filter discs were dried, punched out and counted in a gamma counter at 52% efficiency. Specific binding represented 96% of total binding (approximately 150 fmol angiotensin II/mg protein). The molar concentration (IC50) of the inhibitor that displaced 50% of the binding of I^125 angiotensin II for each compound was calculated using a 4 parameter logistics model (NonLin, SAS Institute). Data are expressed as KI calculated using the Cheng Prusoff equation. See Cheng et al. Biochem. Pharmacol. 22: 3099 (1973).

For experiment [2], the target named is T1, angiotensin-induced vasoconstriction (rabbit aorta) (Oryctolagus cuniculus, UniProt P34976).
T1 construct: The thoracic aortas were removed and cleaned of excess fat and connective tissue; from tissue; host or cells: thoracic aorta rings of New Zealand white rabbits (animals from Hazelton)
T1 sequence (P34976 1-359): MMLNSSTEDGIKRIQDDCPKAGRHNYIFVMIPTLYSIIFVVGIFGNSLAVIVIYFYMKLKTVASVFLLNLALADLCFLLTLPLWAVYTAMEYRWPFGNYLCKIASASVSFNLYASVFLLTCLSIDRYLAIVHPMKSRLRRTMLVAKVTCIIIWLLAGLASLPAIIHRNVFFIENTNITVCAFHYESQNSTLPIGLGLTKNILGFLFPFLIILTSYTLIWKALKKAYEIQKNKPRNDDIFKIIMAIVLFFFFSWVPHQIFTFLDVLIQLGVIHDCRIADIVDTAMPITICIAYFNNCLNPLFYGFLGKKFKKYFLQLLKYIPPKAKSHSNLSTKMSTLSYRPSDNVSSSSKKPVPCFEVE
The experiment in a line: Rabbit Aorta Test System: antagonism of angiotensin II contraction of aortic rings. Set-up: species or system New Zealand white rabbits. The settings on record: contraction to AII 10^-10 to 10^-7 M, 30 minutes incubation with compound; pA2 = -log KB. The protocol:
as §1
New Zealand white rabbits (Hazelton, 2-3 kg) were sacrificed by cervical dislocation. The thoracic aortas were removed and cleaned of excess fat and connective tissue. Rings of tissue (3 mm wide) were mounted in 10 ml tissue baths between 2 L-shaped stainless steel hooks. The lower hook was attached to a stationary rod. The upper hook was attached to a force displacement transducer (Grass model FT.03). The bath chambers were maintained at 37° C., aerated with 95% 02 /5% C02, and contained physiological solution of the following composition (mM): NaCl, 117; glucose, 5.6; NaH2 PO4, 1.0; MgS04, 0.7; KCl, 5.2; CaCl2, 1.8; NaHCO3, 26; and phentolamine HCl, 0.003.
Rings were equilibrated for 1 hour with 2 g of tension. During the equilibration period, the tissues were washed by overflow every 15 minutes. Rings were then exposed to 10^-8 M angiotensin II (AII) and were allowed to contract until a steady state was reached. Tissues were then washed every 15 minutes for 1 hour. This was repeated every hour until the AII response stabilized. A cumulative concentration response curve to AII (10^-10 to 10^-7 M) was then obtained. At the conclusion of the concentration response curve, tissues were washed every 2 minutes until baseline tension was reached, then every 15 minutes for 30 minutes. Compounds were added in a volume of 10 μl DMSO and allowed to incubate for 30 minutes before repeating the concentration response curve to AII. Contractions to AII were expressed as a percent of the maximum contraction obtained in the control curve (the first AII concentration response curve). EC50 's (concentration that contracted the tissues to 1/2 the control maximum) for each curve were calculated using a 4 parameter logistics model (NonLin, SAS Institute). Potency data for each compound tested are expressed as the pA2 (defined as-log KB, where KB =[molar concentration of antagonist]/[(EC50 AII with antagonist/EC50 AII without antagonist)-1]).

Regarding `CCCCCCC(C(=O)NCC)n1cnc(NC(=O)c2ccccc2S(=O)(=O)O)c1` (stereo not drawn) [Example 1, N-Ethyl-2-[4-(2-sulfobenzoyl)amino-1H-imidazol-1-yl]octanoamide], the Ki in experiment [1] came to 10300 nM. In addition, in experiment [2], the Kb is 2000 nM.

On to `CCCCCCC(C(=O)NCCC)n1cnc(NC(=O)c2ccccc2S(=O)(=O)O)c1` (stereo not drawn) [Example 2, N-Propyl-2-[4-(2-sulfobenzoyl)amino-1H-imidazol-1-yl]octanoamide], for which, in experiment [1], the Ki stood at 8200 nM. In experiment [2], the Kb was 794 nM.

Take `CCCCCCC(C(=O)NCC(F)(F)F)n1cnc(NC(=O)c2ccccc2S(=O)(=O)O)c1` (stereo not drawn) [Example 3, N-(2,2,2-Trifluoroethyl)-2-[4-(2-sulfobenzoyl)amino-1H-imidazol-1-yl]octanoamide]: the Ki in experiment [1] worked out at 9600 nM. Besides, the Kb in experiment [2] is 3980 nM.

In the case of `CCCCCCC(C(=O)NC(C)(C)CO)n1cnc(NC(=O)c2ccccc2S(=O)(=O)O)c1` (stereo not drawn) [Example 4, N-[2-(1-Hydroxy-2-methyl)propyl]-2-[4-(2-sulfobenzoyl)amino-1H-imidazol-1-yl]octanoamide], the Ki in experiment [1] stood at 12100 nM. Further, in experiment [2], the Kb was 1000 nM.

Regarding `CCCCCCC(C(=O)N1CCNC1=O)n1cnc(NC(=O)c2ccccc2S(=O)(=O)O)c1` (stereo not drawn) [Example 5, 2-[[[1-[1-[(2-oxo-1-imidazolidinyl)carbonyl]heptyl]-1H-imidazol-4-yl]amino]carbonyl]benzenesulfonic acid], the Ki in experiment [1] came out at 178000 nM. Further, in experiment [2], the Kb is 501 nM.

As to `CCCCCCC(C(=O)Nc1ccccn1)n1cnc(NC(=O)c2ccccc2S(=O)(=O)O)c1` (stereo not drawn) [Example 7, N-(2-Pyridyl)-2-[4-(2-sulfobenzoyl)amino-1H-imidazol-1-yl]octanoamide], the Ki in experiment [1] is 6800 nM. In experiment [2], the Kb was 1580 nM.

For `CCCCCCC(C(=O)Nc1ccccc1O)n1cnc(NC(=O)c2ccccc2S(=O)(=O)O)c1` (stereo not drawn) [Example 8, N-(2-Hydroxyphenyl)-2-[4-(2-sulfobenzoyl)amino-1H-imidazol-1-yl]octanoamide], the Ki in experiment [1] is 13000 nM. Further, in experiment [2], the Kb is 1580 nM.

As for `CCCCCCC(C(=O)Nc1ccccc1C(=O)O)n1cnc(NC(=O)c2ccccc2S(=O)(=O)O)c1` (stereo not drawn) [Example 9, N-(2-Carboxyphenyl)-2-[4-(2-sulfobenzoyl)amino-1H-imidazol-1-yl]octanoamide], the Ki in experiment [1] was determined as 12400 nM. For the same molecule, the Kb in experiment [2] was 251 nM.

For the molecule `CCCCCCC(C(=O)O)n1cnc(NC(=O)c2cccc(O)c2S(=O)(=O)O)c1` (stereo not drawn) [Example 10, 2-[4-(3-Hydroxy-2-sulfobenzoyl)amino-1H-imidazol-1-yl]octanoic acid], the inhibitory constant (Ki) in experiment [1] was 2930 nM. Also, the Kb in experiment [2] is 63.1 nM.

Consider `CCCCCC[C@H](C(=O)N1C[C@@H](Oc2ccc(NS(=O)(=O)C(F)(F)F)cc2)C[C@H]1C(=O)O)n1cnc(NC(=O)c2ccccc2S(=O)(=O)O)c1` [Example 93, (R)-1-[1-oxo-2-[4-(2-sulfobenzoyl)amino-1H-imidazol-1-yl]octyl]-4-(cis)-((4-N-triflouromethanesulfonamido)-phenoxy)-L-proline], for which the “Rabbit Aorta (pA2)” value in experiment [2] turned out to be 8.9.

On to `CCCCCC[C@H](C(=O)N1C[C@@H](Oc2ccc(N(C)S(C)(=O)=O)cc2)C[C@H]1C(=O)O)n1cnc(NC(=O)c2ccccc2S(=O)(=O)O)c1` [Example 94, (R)-1-[1-oxo-2-[4-(2-sulfobenzoyl)amino-1H-imidazol-1-yl]octyl]-4-(cis)-[(4-N,N-methyl-methanesulfonamido)-phenoxy]-L-proline], for which the Kb in experiment [2] was 0.251 nM.

In the case of `CCCCCC[C@H](C(=O)N1C[C@@H](Oc2ccc(CNS(C)(=O)=O)cc2)C[C@H]1C(=O)O)n1cnc(NC(=O)c2ccccc2S(=O)(=O)O)c1` [Example 95], the Kb in experiment [2] was 0.158 nM.
